Measurements reported in article PMC6522510 (Nature Communications, 2019).
Where two headings read alike, the source gives them in different places.

What was measured:
MOLM-13 = test: Secondary dose-response HTS, Cell Titer Glo; assay type: cell-based, human; settings: MOLM-13; for EC50: Homo sapiens
MV4-11 [1] = test: Secondary dose-response HTS, Cell Titer Glo; assay type: cell-based, human; settings: secondary high-throughput screen; MV4-11
CHRF288-11 = test: Secondary dose-response HTS, Cell Titer Glo; assay type: cell-based, human; settings: for EC50: Homo sapiens
CMS = test: Secondary dose-response HTS, Cell Titer Glo; assay type: cell-based, human; settings: for EC50: Homo sapiens, HTS
M07e = test: Secondary dose-response HTS, Cell Titer Glo; assay type: cell-based, human; settings: for EC50: Homo sapiens, M-07e
ML2 = test: Secondary dose-response HTS, Cell Titer Glo; assay type: cell-based, human; settings: ML-2; for EC50: Homo sapiens
U937 = test: Secondary dose-response HTS, Cell Titer Glo; assay type: cell-based, human; settings: for EC50: Homo sapiens, U-937
CMK = test: Secondary dose-response HTS, Cell Titer Glo; assay type: cell-based, human; settings: CMK; for EC50: Homo sapiens
MV4-11 [2] = test: cells; set-up: species or system AML cell lines (8); Secondary HTS, 10-point dose-response in triplicate, Cell Titer Glo viability, four-parameter fit EC50; settings: Homo sapiens, MV4-11, 72 h, read-out: MV4-11
[3] = secondary high-throughput screen
[4] = secondary high-throughput screen, CHRF288-11
[5] = secondary high-throughput screen, CMS
[6] = secondary high-throughput screen, […]
[7] = secondary high-throughput screen, U937
[8] = secondary high-throughput screen, read-out: average effective concentration, MOLM-13
[9] = HTS, secondary high-throughput screen, CHRF288-11, read-out: average effective concentration, CHRF288-11
[10] = read-out: average effective concentration, CMK
[11] = read-out: average effective concentration, CMS
[12] = secondary high-throughput screen, M07e, read-out: average effective concentration, M07e
[13] = secondary high-throughput screen, read-out: average effective concentration, ML-2
[14] = secondary high-throughput screen, U937, read-out: average effective concentration, U937
[15] = secondary high-throughput screen, M07e
[16] = secondary high-throughput screen, read-out: average effective concentration, CMK
[17] = secondary high-throughput screen, CMS, read-out: average effective concentration, CMS

Row | Compound | average effective concentration, MOLM-13 (MOLM-13; [3]) | average effective concentration, MV4-11 (MV4-11 [1]) | average effective concentration, CHRF288-11 (CHRF288-11; [4]) | average effective concentration, CMS (CMS; [5]) | average effective concentration, ML-2 (ML2; [3]) | EC50 (MOLM-13; [8]) [nM] | EC50 (CHRF288-11; [9]) [nM] | EC50 (M07e; [12]) [nM] | EC50 (ML2; [13]) [nM] | EC50 (U937; [14]) [nM] | EC50 (MV4-11 [2]) [nM] | average effective concentration, CMK (CMK; [3]) | also measured
1 | O=[As]O[As]=O (stereo not shown) [ARSENIC TRIOXIDE] | Inactive | Inactive | Inactive | Inactive | Inactive |  |  |  |  |  |  |  | average effective concentration, M07e (M07e; [6]): Inactive; average effective concentration, U937 (U937; [7]): Inactive
2 | C#Cc1cccc(Nc2ncnc3cc(OC)c(OCCCCCCC(=O)NO)cc23)c1 [CUDC-101] |  |  |  |  |  | 5600 | 600 | 190 | 83 | 140 | > 10000 |  | EC50 (CMK; [10]): 73 nM; EC50 (CMS; [11]): 780 nM
3 | CSCC[C@H](NC(=O)c1ccc(NC(=O)[C@@H](N)CS)cc1)C(=O)O [H-CYS-4-ABZ-MET-OH] | Inactive | Inactive | Inactive | Inactive | Inactive |  |  |  |  |  |  | Inactive | average effective concentration, M07e (M07e; [15]): Inactive
4 | CN(C)Cc1ccc(S(=O)(=O)n2ccc(/C=C/C(=O)NO)c2)cc1 [RESMINOSTAT] |  |  |  |  |  | 2000 | 4700 | 1100 | 5000 | 3500 | > 10000 |  | EC50 (CMK; [16]): 1700 nM; EC50 (CMS; [17]): 3100 nM
5 | CC(N[C@H]1C[C@@H]1c1ccccc1)c1ccc2c(c1)OCCO2 (stereo partly shown) [LSD1-C76] | Inactive |  | Inactive | Inactive | Inactive |  |  |  |  |  |  | Inactive | average effective concentration, M07e (M07e; [15]): Inactive; average effective concentration, U937 (U937; [7]): Inactive
6 | O=C(/C=C/c1cccc(S(=O)(=O)Nc2ccccc2)c1)NO [BELINOSTAT] |  |  |  |  |  | 270 | 240 | 190 | 350 | 170 | > 10000 |  | EC50 (CMK; [10]): 14 nM; EC50 (CMS; [11]): 250 nM
7 | Cc1c(-c2cnccn2)ssc1=S [OLTIPRAZ] |  |  |  |  |  | > 10000 | > 10000 | > 10000 | 3100 | 5800 |  |  | EC50 (CMS; [17]): 10000 nM
8 | C1=C/COCc2cc(ccc2OCCN2CCCC2)Nc2nccc(n2)-c2cccc(c2)COC/1 [PACRITINIB] |  |  |  |  |  | 310 | 2400 | 6700 | 130 | 280 | > 10000 |  | EC50 (CMK; [10]): 5000 nM; EC50 (CMS; [11]): 2000 nM
9 | Fc1ccc(CNc2ncnc3ccc(F)cc23)cc1 [SPAUTIN-1] | Inactive | Inactive | Inactive | Inactive | Inactive |  |  |  |  |  |  | Inactive | average effective concentration, M07e (M07e; [6]): Inactive
10 | C[C@H]1[C@H](OC(=O)CCC(=O)O)O[C@@H]2O[C@@]3(C)CC[C@H]4[C@H](C)CC[C@@H]1[C@@]24OO3 [Artesunate, reference compound] |  |  |  |  |  | 1300 | 8600 | 1200 | 4600 | 1000 |  |  | EC50 (CMS; [17]): 5900 nM
11 | CSCC[C@@H](NC(=O)c1ccc(CNCc2cnc[nH]2)cc1-c1ccccc1C)C(=O)OCc1ccccc1 [FTI-2628] | Inactive | Inactive | Inactive | Inactive | Inactive |  |  |  |  |  |  | Inactive | average effective concentration, M07e (M07e; [15]): Inactive
12 | N#CCNC(=O)c1ccc(-c2ccnc(Nc3ccc(N4CCOCC4)cc3)n2)cc1 [CYT-387] |  |  |  |  |  | 1200 | 3800 | 270 | > 10000 | 7600 | > 10000 |  | EC50 (CMK; [10]): 1800 nM; EC50 (CMS; [11]): 340 nM
13 | N[C@@H]1CCCN(c2c(/C=C3\SC(=O)NC3=O)cccc2-c2ccccc2)C1 [AZD1208] | Inactive | Inactive |  | Inactive | Inactive |  |  |  |  |  |  | Inactive | average effective concentration, M07e (M07e; [15]): Inactive; average effective concentration, U937 (U937; [7]): Inactive
14 | COc1ccc(-c2nc(N3CCOCC3)c3sc(CN(C)c4ncc(C(=O)NO)cn4)cc3n2)cn1 [CUDC-907, reference compound] |  |  |  |  |  | 0.447 | 0.89 | 0.7 | 1.7 |  |  |  | EC50 (MOLM-13; secondary HTS, 72 h, average of triplicate, read-out: EC50 MOLM-13): 0.4 nM; EC50 (CHRF288-11; secondary HTS, 72 h, average of triplicate, read-out: EC50 CHRF288-11): 1 nM; EC50 (CMK; 72 h, read-out: EC50 CMK): 2 nM; EC50 (CMK; [10]): 1.9 nM; EC50 (CMS; 72 h, read-out: EC50 CMS): 1 nM; EC50 (M07e; secondary HTS, 72 h, average of triplicate, read-out: EC50 M07e): 1 nM; EC50 (ML2; secondary HTS, 72 h, average of triplicate, read-out: EC50 ML2): 2 nM; EC50 (U937; secondary HTS, 72 h, average of triplicate, read-out: EC50 U937): 4 nM
15 | C=C1C(=O)O[C@@H](CCC)[C@@H]1C(=O)O (racemic) [BUTYROLACTONE 3] |  | Inactive | Inactive | Inactive | Inactive |  |  |  |  |  |  | Inactive | average effective concentration, M07e (M07e; [6]): Inactive; average effective concentration, U937 (U937; [7]): Inactive
16 | Nc1cc(F)ccc1NC(=O)/C=C/c1cnn(C/C=C/c2ccccc2)c1 [RGFP966] |  |  |  |  |  | > 10000 | 7300 |  | > 10000 | > 10000 | > 10000 |  | EC50 (CMK; [16]): 6000 nM; EC50 (CMS; [17]): 9300 nM; EC50 (M07e; secondary high-throughput screen, […], read-out: average effective concentration, M07e): 10000 nM
17 | SCH 51344 | Inactive |  | Inactive | Inactive | Inactive |  |  |  |  |  |  | Inactive | average effective concentration, M07e (M07e; [15]): Inactive; average effective concentration, U937 (U937; [7]): Inactive
18 | CC(=O)Nc1ccc(C(=O)Nc2ccccc2N)cc1 [TACEDINALINE] |  |  |  |  |  | 2200 | > 10000 | 4100 | > 10000 | > 10000 | > 10000 |  | EC50 (CMK; [16]): 6800 nM; EC50 (CMS; [17]): 9000 nM
